Experimental data from PMC13164762, “Development and Validation of an LC-MS/MS Method for the Quantitation of JNJ-64619178 (JNJ) in Mouse Plasma: Characterization of In Vitro and In Vivo Pharmacokinetic Properties” (Molecules, 2026).
“And” between values parts separate entries of the source, which are not always exact repeats. Equal values may be shown once. Read-outs that look alike come from different tables or passages of the source.

Key:
[1] = Matrix stability study in mouse plasma; assay type: in vitro ADME; conditions: 5 µg mL^−1, 37 °C, approximately 5 h, triplicate, read-out: concentration remaining (%)
Method: For the matrix stability study, JNJ was spiked into mouse plasma and brain homogenate at a final concentration of 5 µg mL^−1 and incubated at 37 °C for 5 h on a shaking water bath in triplicate. At the specified sampling times, 50 µL aliquots were taken in the collection plate, followed by quenching with 300 µL acetonitrile containing 10 µL IS. After final collection, samples were vortexed at 1000 rpm for 2 min and centrifuged at 2200× g for 10 min, and the collected supernatant was analyzed using LC-MS/MS. Stability was estimated by determining the % remaining after 5 h of incubation using Equation (1).(1) % remaining=Concentration5h/Concentration0h×100

[2] = Microsomal metabolic stability, mouse liver microsomes; assay type: in vitro ADME
Method: Mouse and human liver microsomes were used for the metabolic stability assay. In brief, the incubation mixture (500 µL) consisted of phosphate-buffered saline (PBS) (100 mM, pH 7.4), microsomal protein (0.5 mg mL^−1), magnesium chloride (10 mM), and NADPH (2 mM). Following pre-incubation of the above reaction mixture for 10 min at 37 °C, the reaction was initiated by spiking JNJ at a final 1 µg mL^−1 concentration. Alongside the test compound, testosterone at a final concentration of 1 µg mL^−1 was incubated as a positive control. All experiments were performed in triplicate. At sampling times of 0, 5, 10, 20, 30, 45, and 60 min, 40 µL samples were collected and quenched with 300 µL ice-chilled acetonitrile supplemented with 10 µL IS. Simultaneously, samples from NADPH-free negative controls were also withdrawn and processed accordingly to confirm any non-enzymatic degradation. Finally, after 1 h of collection, samples were vortexed at 1000 rpm for 1 min and centrifuged at 2200× g for 15 min, and the collected supernatant was analyzed using LC-MS/MS.
The natural logarithm of the area ratio versus time was plotted, and the slope of the curve was calculated by a linear regression equation to generate the elimination rate constant, k (min^−1). CLint was calculated by the following equation:(2) CLint=0.693/t1/2×Volume of incubation mixture (mL)/microsomal protein (mg)
CLH,int of JNJ in the mouse and human liver was then estimated from CLint using the scaling factor.(3) CLH,int=CLint×Microsomal protein (mg)/Liver (g)×Liver weight (g)/Body weight (kg)
Here, 45 and 32 mg of microsomal protein per g of liver weight were applied, and 60 and 25 g of liver weight per kg body weight were used for mouse and human tissue, respectively.
Then, CLH,int was corrected for microsomal binding (CLH,int/fu,inc) and CLH,predict was predicted using the well-stirred model by the following equation:(4) CLH,predict=Q × fu,plasma×CLH,int/fu,inc /Q + fu,plasma×CLH,int/fu,inc
Here, Q is the hepatic blood flow (90 mL min^−1 kg^−1 in mouse), fu,plasma is the fraction unbound in plasma, fu,inc is the fraction unbound in microsomal incubation and CLH,int is included from Equation (3); fu,inc was calculated by adding logP of JNJ (2.3) to the following equation:(5) fu,inc=1/1 + 10^0.53 logP − 1.42

[3] = Rapid equilibrium dialysis (RED) brain protein binding; assay type: in vitro ADME, mouse; conditions: for fraction unbound at 5 h: mouse, brain homogenate
Method: A rapid equilibrium dialysis (RED) protein binding assay was performed to determine the protein binding of JNJ in plasma and brain matrix. The RED plate was obtained from Thermo Fisher Scientific (Frederick, MD, USA) for the experiment. An aliquot (200 µL) of JNJ spiked plasma/brain homogenate was poured into the donor chamber, and 400 µL dialysis buffer-PBS containing 100 mM sodium phosphate and 150 mM sodium chloride was added into the receiver compartment of each RED insert in triplicate. The plate was kept in incubation for 5 h on the orbital shaker at 37 °C. Following incubation, 50 µL plasma and buffer aliquots were collected separately, and an equal volume of opposite matrix was added. Collected samples were processed as previously described in Section 4.6 and analyzed using LC-MS/MS. Degree of protein binding (%) was calculated by the following equation:(6) Protein bound (%)=Concentrationdonor cell−Concentrationreceiver cell/Concentrationdonor cell×100

[4] = In vivo PK study (plasma, IV and PO); parameters: species or system balb/c mice; conditions: for half-life: read-out: t1/2 (terminal half-life) (converted)
Method: We performed in vivo PK analysis for JNJ by 2.5 mg kg^−1 IV and 10 mg kg^−1 PO routes of administration in healthy male balb/c mice. We could quantify a dynamic range of concentrations in in vivo PK samples with our established LC-MS/MS method. Non-compartmental analysis (NCA) was performed using Phoenix software version 8.3 to estimate PK parameters from the observed plasma concentration–time profile data. […] The NCA PK parameter data are represented in Table 6. For the oral PK study, male balb/C mice were grouped into two groups, with n = 4 for each group. Throughout the experiment, mice had free access to adequate food and water. The oral solution comprised 20% (v/v) polyethylene glycol 400, 10% (v/v) propylene glycol, 10% (v/v) ethanol, 2% (v/v) DMSO, 5% cremophore, and water as the rest of the volume. For the IV dose administration, 12 male balb/C mice were used in the study, divided into two groups. The IV solution used the same composition as the oral study. Doses of 10 and 2.5 mg kg^−1 were used for oral and IV routes, respectively. Blood samplings were done at 5 min, 15 min, 30 min, 1 h, 2 h, 4 h, 8 h, and 24 h. After collection, blood samples were centrifuged immediately at 956× g for 10 min, and plasma was separated in an Eppendorf tube and stored at −80 °C until processed. In the oral PK study, tissues—liver, kidney, spleen, lung, and brain—were collected at 2, 8, and 24 h to assess the biodistribution pattern of JNJ in the oral route.

[5] = input for fu,inc equation; source not given; cited from earlier work
[6] = male, mouse, IV 2.5 mg kg^−1, balb/c mice, plasma, n = 6
[7] = male, mouse, PO 10 mg kg^−1, balb/c mice, plasma, n = 4

remaining at 5 h, 5 µg mL^−1 [1]: ~100%
microsomal intrinsic clearance (CLint) ([2]; MLM, mean ± SD, n = 3): 0.02 ± 0.01 mL min^−1 mg^−1 protein
half-life at 1 µg mL^−1 ([2]; mouse, liver microsomes, pH 7.4, MLM, mean ± SD, n = 3, read-out: Half-life (t1/2)): 1.68 ± 0.65 h
remaining at 1 h, 1 µg mL^−1 ([2]; mouse, liver microsomes, pH 7.4, MLMs, NADPH, 1 µg mL^−1, n = 3, read-out: percent remaining concentration after 1 h incubation): 60 ± 12%
Brain Protein Binding (%) ([3]; mouse brain homogenate, RED, 5 h, 37 °C, n = 3): 94 ± 1%
fraction unbound at 5 h ([3]; mouse brain homogenate, RED, 5 h, 37 °C, n = 3, read-out: Brain Protein Binding (%)): < 0.06
fraction unbound at 5 h ([3]; mouse brain, read-out: fraction unbound in brain (fu,brain)): 0.057
underestimation of observed plasma clearance by predicted hepatic clearance ([4]; 1.6 vs 3.8 mL min^−1 kg^−1, mice): approximately 2.3 fold
in vivo clearance as % of mice hepatic blood flow ([4]; IV, hepatic blood flow 3.6 L h^−1 kg^−1): ~6%
volume of distribution relative to total body water ([4]; IV, total body water 68.6% of body weight): ~ 1.6 times
CL (plasma clearance) ([4]; PO 10 mg kg^−1, balb/c mice, oral CL normalized by bioavailability (%)): 3.83 ± 0.67 mL/min/kg
Vz (volume of distribution) ([4]; PO 10 mg kg^−1, balb/c mice, oral Vz normalized by bioavailability (%)): 0.88 ± 0.32 L/kg
Tmax ([4]; PO 10 mg kg^−1, mice, plasma): ~ 30 min
Cmax relative to IC50 in the HD-MB cell line ([4]; PO 10 mg kg^−1, times higher than IC50 (821 ng mL^−1)): ~ 3 times
clearance ([4]; male, balb/c, mouse, plasma, 2.5 mg kg^−1, IV, equivalent to 0.23 L h^−1 kg^−1, read-out: observed plasma clearance): 3.8 mL/min/kg
Tmax ([4]; male, balb/c, mouse, plasma, iv, 2.5 mg/kg, IV 2.5 mg kg^−1, balb/c mice, plasma, n = 6, read-out: Tmax (converted)): 0.11 ± 0.08 h
Tmax ([4]; male, balb/c, mouse, plasma, po, 10 mg/kg, PO 10 mg kg^−1, balb/c mice, plasma, n = 4, read-out: Tmax (converted)): 0.42 ± 0.14 h
Tmax ([4]; male, balb/c, mouse, plasma, po, 10 mg/kg, PO 10 mg kg^−1, mice, plasma, read-out: Tmax (converted)): 0.5 h
clearance ([4]; male, mouse, plasma, IV 2.5 mg kg^−1, balb/c mice, n = 6, read-out: CL (plasma clearance) (converted)): 3.83 mL/min/kg
Vd ([4]; male, mouse, plasma, IV 2.5 mg kg^−1, balb/c mice, n = 6, read-out: Vz (volume of distribution)): 1.2 ± 0.7 L/kg
half-life ([4]; male, mouse, plasma, IV 2.5 mg kg^−1, balb/c mice, n = 6): 3.3 ± 1.1 h
half-life ([4]; male, mouse, plasma, PO 10 mg kg^−1, balb/c mice, n = 4): 2.6 ± 0.7 h
bioavailability ([4]; male, mouse, plasma, PO 10 mg kg^−1 vs IV 2.5 mg kg^−1, balb/c mice): ~15% and 15%
AUC [4, 6]: 11600 ng·h/mL
Cmax [4, 6]: 4940 ± 1220 ng/mL
AUC [4, 7]: 6800 ± 1270 ng·h/mL
Cmax [4, 7]: 2780 ± 1030 ng/mL
Structure (SMILES): Nc1nc2cc(CC[C@H]3C[C@@H](n4ccc5c(N)ncnc54)[C@H](O)[C@@H]3O)ccc2cc1Br [JNJ, JNJ-64619178]
hepatic intrinsic clearance (CLH,int) ([2]; MLM, scaled from CLint (45 mg protein/g liver, 60 g liver/kg)): 41 ± 19 mL min^−1 kg^−1 body weight
predicted in vivo hepatic clearance (CLH,predict) ([2]; mice, in vitro scaling, well-stirred model): 1.6 mL min^−1 kg^−1 body weight and 1.6 ± 0.7 mL min^−1 kg^−1 body weight
logP [5]: 2.3
